# From US9676789B2, “Aminated derivative of homoharringtonine, preparation method therefor, and application thereof” (HANGZHOU BENSHENG PHARMACEUTICAL CO., LTD., priority 2011, dated 2017)
# Experiments:
# [1] = tested on: RPMI8226 (multiple myeloma); test: MTT multiple myeloma cell growth inhibition, 72 h; assay type: cell-based, human; settings: Homo sapiens, RPMI-8226, RPMI8226, 72 h; for IC50: read-out: IC50; for IC90: read-out: IC90
# Procedure: Multiple myeloma and lymphoma cell lines: RPMI8226 (multiple myeloma), purchased from Fuxiang Bio-tech Co. Ltd., Shanghai, China.
# (§1) Obtaining 6000 well-growing leukemia cells and inoculating them into wells of a 96-well cell culture plate. The culture medium is the 1640 cell culture medium containing 10% fetal bovine serum. After adding the homoharringtonine derivatives of different concentrations and mixing uniformly, placing the plate in a carbon dioxide cell incubator (5% CO2) at 37° C. and incubating for 72 hours. Then the viable cell concentration is determined by the MTT method.
# [2] = tested on: Huh7 (human liver cancer cell); test: MTT solid tumor cell growth inhibition, 72 h; assay type: cell-based; settings: Homo sapiens, Huh-7, Huh7, 72 h; for IC50: read-out: IC50; for IC90: read-out: IC90
# Procedure: (§2) Human solid tumor cell lines: Hep-2 ([…]), A549 (human lung cancer), CaES-17 (esophageal cancer cell), PC-3 (prostate cancer), CNE (nasopharyngeal carcinoma cell), and SK-OV-3 (ovarian cancer cell), all of which are purchased from China Center For Type Culture Collection; RKO (human colon adenocarcinoma cell), MGC 803 (human gastric cancer cell), MG63 (osteosarcoma) and U87 MG (malignant glioma cell), all of which are purchased from Fuxiang Bio-tech Co. Ltd., Shanghai, China; PANC-1 (pancreatic cancer), Huh7 (human liver cancer cell), Becap37 (human breast cancer cell), and Hela (human cervical cancer cell), all of which are donated by Cancer Research Institute of Zhejiang University, China.
# (§3) Obtaining 4000 well-growing human solid tumor cells and inoculating them into wells of a 96-well cell culture plate. The culture medium is DMEM High Glucose cell culture medium containing 10% fetal bovine serum. The plate is placed in a carbon dioxide cell incubator (5% CO2) at 37° C. and incubating for 24 hours. After adding the homoharringtonine derivatives of different concentration and mixing uniformly, the plate is placed in a carbon dioxide cell incubator (5% CO2) at 37° C. and incubating for 72 hours. Then the viable cell concentration is determined by the MTT method and the cell viability (%) after drug treatment is calculated. In this experiment, the cell viability of control group (not treated with any compound) is set as 100%.
# [3] = tested on: A549 (human lung cancer); test: MTT solid tumor cell growth inhibition, 72 h; assay type: cell-based; settings: Homo sapiens, A549, 72 h; for IC50: read-out: IC50; for IC90: read-out: IC90
# Procedure: as §2, §3
# [4] = tested on: RKO (human colon adenocarcinoma cell); test: MTT solid tumor cell growth inhibition, 72 h; assay type: cell-based; settings: Homo sapiens; for IC50: read-out: IC50; for IC90: read-out: IC90
# Procedure: as §2, §3
# [5] = tested on: MGC 803 (human gastric cancer cell); test: MTT solid tumor cell growth inhibition, 72 h; assay type: cell-based; settings: Homo sapiens, MGC 803, 72 h; for IC50: read-out: IC50; for IC90: read-out: IC90
# Procedure: as §2, §3
# [6] = tested on: Becap37 (human breast cancer cell); test: MTT solid tumor cell growth inhibition, 72 h; assay type: cell-based; settings: Homo sapiens, Becap37, 72 h; for IC50: read-out: IC50; for IC90: read-out: IC90
# Procedure: as §2, §3
# [7] = tested on: K562/adr (drug-resistant, chronic myeloid leukemia, CML); test: MTT leukemia cell growth inhibition, 72 h; assay type: cell-based, human; settings: Homo sapiens, K562/Adr; for IC50: read-out: IC50; for IC90: read-out: IC90
# Text: (§4) Leukemia cell lines: K562/adr (drug-resistant, chronic myeloid leukemia, CML), NB4 (acute promyelocytic leukemia, AML), Kasumi-1 (acute myeloid leukemia M2 type, AML-M2), Jurkat (acute lymphoblastic leukemia, ALL), all of which are donated by Cancer Research Institute of Zhejiang University, China; and H9 (acute lymphoblastic leukemia, ALL), which is purchased from China Center for Type Culture Collection.
# as §1, with “method. In this experiment, the cell viability in control group (not treated with any compound) is set as 100%.” for “method.”
# [8] = tested on: H9 (acute lymphoblastic leukemia, ALL); test: MTT leukemia cell growth inhibition, 72 h; assay type: cell-based, human; settings: Homo sapiens, H9, 72 h; for IC50: read-out: IC50; for IC90: read-out: IC90
# Text: as §4
# as §1, with “method. In this experiment, the cell viability in control group (not treated with any compound) is set as 100%.” for “method.”
# [9] = tested on: Jurkat (acute lymphoblastic leukemia, ALL); test: MTT leukemia cell growth inhibition, 72 h; assay type: cell-based, human; settings: Homo sapiens; for IC50: read-out: IC50; for IC90: read-out: IC90
# Text: as §4
# as §1, with “method. In this experiment, the cell viability in control group (not treated with any compound) is set as 100%.” for “method.”
# [10] = tested on: Kasumi-1 (acute myeloid leukemia M2 type, AML-M2); test: MTT leukemia cell growth inhibition, 72 h; assay type: cell-based, human; settings: Homo sapiens, Kasumi-1, 72 h; for IC50: read-out: IC50; for IC90: read-out: IC90
# Text: as §4
# as §1, with “method. In this experiment, the cell viability in control group (not treated with any compound) is set as 100%.” for “method.”
# [11] = tested on: NB4 (acute promyelocytic leukemia, AML); test: MTT leukemia cell growth inhibition, 72 h; assay type: cell-based, human; settings: Homo sapiens, NB4, 72 h; for IC50: read-out: IC50; for IC90: read-out: IC90
# Text: as §4
# as §1, with “method. In this experiment, the cell viability in control group (not treated with any compound) is set as 100%.” for “method.”
# [12] = tested on: PANC-1 (pancreatic cancer); test: MTT solid tumor cell growth inhibition, 72 h; assay type: cell-based, human; settings: Homo sapiens, PANC-1, 72 h; for IC50: read-out: IC50; for IC90: read-out: IC90
# Procedure: as §2, §3
# [13] = tested on: MG63 (osteosarcoma); test: MTT solid tumor cell growth inhibition, 72 h; assay type: cell-based, human; settings: Homo sapiens, MG 63, 72 h; for IC50: read-out: IC50; for IC90: read-out: IC90
# Procedure: as §2, §3
# [14] = tested on: U87 MG (malignant glioma cell); test: MTT solid tumor cell growth inhibition, 72 h; assay type: cell-based, human; settings: Homo sapiens, U-87 MG
# Procedure: as §2, §3
SMILES,IC50 [1] [µg/mL],IC90 [1] [µg/mL],IC50 [2] [µg/mL],IC90 [2] [µg/mL],IC50 [3] [µg/mL],IC90 [3] [µg/mL],IC50 [4] [µg/mL],IC90 [4] [µg/mL],IC50 [5] [µg/mL],IC90 [5] [µg/mL],IC50 [6] [µg/mL],IC90 [6] [µg/mL],IC50 [7] [µg/mL],IC90 [7] [µg/mL],IC50 [8] [µg/mL],IC90 [8] [µg/mL],IC50 [9] [µg/mL],IC90 [9] [µg/mL],IC50 [10] [µg/mL],IC90 [10] [µg/mL],also measured
COC1=C[C@]23CCCN2CCc2cc4c(cc2[C@@H]3[C@@H]1OC(=O)[C@@](O)(CCCC(C)(C)O)CC(=O)N1CCN(CCO)CC1)OCO4 [BS-HH-020],16,> 16,> 16,> 16,> 16,> 16,8.38,> 16,7.5,> 16,> 16,> 16,> 16,> 16,> 16,> 16,15.1,> 16,> 16,> 16,IC50 [11]: 7.46 µg/mL; IC90 [11]: 15.8 µg/mL; IC50 [12]: > 16 µg/mL; IC90 [12]: > 16 µg/mL; IC50 [13]: 14.1 µg/mL; IC90 [13]: > 16 µg/mL
COC1=C[C@]23CCCN2CCc2cc4c(cc2[C@@H]3[C@@H]1OC(=O)[C@@](O)(CCCC(C)(C)O)CC(=O)N1CCC(O)CC1)OCO4 [BS-HH-021],16,> 16,> 16,> 16,> 16,> 16,8.51,> 16,> 16,> 16,> 16,> 16,> 16,> 16,> 16,> 16,13.4,> 16,14.6,> 16,IC50 [11]: 8 µg/mL; IC90 [11]: 16 µg/mL; IC50 [12]: > 16 µg/mL; IC90 [12]: > 16 µg/mL; IC50 [13]: > 16 µg/mL; IC90 [13]: > 16 µg/mL
COC1=C[C@]23CCCN2CCc2cc4c(cc2[C@@H]3[C@@H]1OC(=O)[C@@](O)(CCCC(C)(C)O)CC(=O)N1CCCC(O)C1)OCO4 (stereo partly shown) [BS-HH-025],> 16,> 16,> 16,> 16,> 16,> 16,15.3,> 16,> 16,> 16,> 16,> 16,> 16,> 16,> 16,> 16,> 16,> 16,> 16,> 16,IC50 [11]: 8.31 µg/mL; IC90 [11]: > 16 µg/mL; IC50 [12]: > 16 µg/mL; IC90 [12]: > 16 µg/mL; IC50 [13]: > 16 µg/mL; IC90 [13]: > 16 µg/mL
COC1=C[C@]23CCCN2CCc2cc4c(cc2[C@@H]3[C@@H]1OC(=O)[C@@](O)(CCCC(C)(C)O)CC(=O)NCc1cccs1)OCO4 [BS-HH-055],2.1,16,4.83,> 16,11.2,> 16,2.75,6.97,6.06,19,5.9,> 16,6.24,16,4,10.6,1.58,8,1.3,6.68,IC50 [11]: 2.38 µg/mL; IC90 [11]: 7.61 µg/mL; IC50 ([14]; read-out: IC50): 6.54 µg/mL; IC90 ([14]; read-out: IC90): > 16 µg/mL; IC50 [12]: 8 µg/mL; IC90 [12]: > 16 µg/mL; IC50 [13]: 3.83 µg/mL; IC90 [13]: 16 µg/mL
